Assay results reported in US5766620A, “Buccal delivery of glucagon-like insulinotropic peptides” (TheraTech, Inc., priority 1995, dated 1998).
Like-named read-outs stand apart in the source and are kept apart here.

Columns and labels:
[1] = intravenous infusion, fasting individuals, published data; cited from earlier work
[2] = Published subcutaneous administration of GLP-1 to fasting subjects (Nauck, FIG. 8); format: in vivo, human
Text: A study by M. A. Nauck of subcutaneous administration of GLP-1 to fasting subjects illustrates changes in the pharmocokinetics with dose (FIG. 8). This could be due to changes in bioavailability with dose, changes in clearance with dose, or a combination of both effects.

clinical = test: clinical
Text: This example describes a double-blind, placebo-controlled, crossover comparison with random assignment to treatment sequence. […] Inclusion criteria for the volunteers were normal glucose tolerance, weight within 22<BMI<26, informed consent to participate in the study, and age between 20 and 60 years. Exclusion criteria were impaired glucose tolerance (2-hour glucose tolerance test; OGTT), gastrointestinal symptoms, ongoing medication or illness, acute infection, abnormal laboratory variables (hemoglobin, hematocrit, leucocytes, creatinine, bilirubin, calcium, potassium, sodium, alkaline phosphatase, gamma-GT, SGOT, SGPT, cholesterol, and triglycerides), and blood pressure greater than 185 mmHg systolic and/or 90 mmHg diastolic.
Subject numbers were allotted to the subjects in the order in which they were enrolled in the study. The number allotted to each subject determined the treatment sequence received. Subjects receiving treatment sequence 1 were treated with drug followed by placebo, and subjects receiving treatment sequence 2 were treated with placebo followed by drug.
Subjects were instructed to fast the night before a treatment. At the clinic, the subjects were given either a drug-containing bilayer tablet or placebo. […] Standard safety variables were determined under fasting conditions before each experiment. Blood glucose was monitored frequently and glucose infusion was available in case of hypoglycemia (<2.5 mmol/L). […]
(§1) Blood samples were taken for pharmacokinetic analysis 10 minutes before application of the drug, and at 5, 10, 15, 20, 25, 30, 40, 50, 60, 75, 90, 120, 150, 180, 210, 240, and 270 minutes and 6 and 8 hours after application of the drug. […] The peptide content of bilayer tablet samples was also analyzed by HPLC. […]
The data summarized in FIG. 7 were analyzed by AUC to provide an estimate of relative bioavailability by buccal administration as compared to subcutaneous administration.

blood glucose = test: Blood glucose after buccal bilayer tablet, double-blind placebo-controlled crossover; conditions: 400 μg buccal bilayer tablet, fasting healthy volunteers
Text: This example describes a double-blind, placebo-controlled, crossover comparison with random assignment to treatment sequence. […] Inclusion criteria for the volunteers were normal glucose tolerance, weight within 22<BMI<26, informed consent to participate in the study, and age between 20 and 60 years. […]
Subject numbers were allotted to the subjects in the order in which they were enrolled in the study. The number allotted to each subject determined the treatment sequence received. […]
Subjects were instructed to fast the night before a treatment. […] Standard safety variables were determined under fasting conditions before each experiment. Blood glucose was monitored frequently and glucose infusion was available in case of hypoglycemia (<2.5 mmol/L). […]
as §1

[3] = after administration, 400 μg buccal bilayer tablet

| Molecule | clearance [1] | bioavailability by subcutaneous administration relative to intravenous administration ([2]; subcutaneous) | clearance ([2]; subcutaneous administration, regression analysis of all results) | time of onset of sharp rise of plasma GLP-1(7-36)amide level (clinical; [3]) | time until which elevated GLP-1(7-36)amide levels remain in the blood (clinical; [3]) | F rel (clinical; human, plasma, 400 ug) | hypoglycemia (blood glucose) |
| --- | --- | --- | --- | --- | --- | --- | --- |
| GLP-1: GLP-1 given intravenously (7-37 and 7-36 amide) or subcutaneously to fasting subjects in published studies used for comparison | ~0.9 L/h/kg | 38% | about 40 ml/min/kg |  |  |  |  |
| CC[C@H](C)[C@H](NC(=O)[C@H](Cc1ccccc1)NC(=O)[C@H](CCC(=O)O)NC(=O)[C@H](CCCCN)NC(=O)[C@H](C)NC(=O)[C@H](C)NC(=O)[C@H](CCC(N)=O)NC(=O)CNC(=O)[C@H](CCC(=O)O)NC(=O)[C@H](CC(C)C)NC(=O)[C@H](Cc1ccc(O)cc1)NC(=O)[C@H](CO)NC(=O)[C@H](CO)NC(=O)[C@@H](NC(=O)[C@H](CC(=O)O)NC(=O)[C@H](CO)NC(=O)[C@@H](NC(=O)[C@H](Cc1ccccc1)NC(=O)[C@@H](NC(=O)CNC(=O)[C@H](CCC(=O)O)NC(=O)[C@H](C)NC(=O)[C@@H](N)Cc1c[nH]cn1)[C@@H](C)O)[C@@H](C)O)C(C)C)C(=O)N[C@@H](C)C(=O)N[C@@H](Cc1c[nH]c2ccccc12)C(=O)N[C@@H](CC(C)C)C(=O)N[C@H](C(=O)N[C@@H](CCCCN)C(=O)NCC(=O)N[C@@H](CCCNC(=N)N)C(N)=O)C(C)C [GLP-1(7-36)amide] |  |  |  | ≤ 5 min | about 150 minutes | 27% | does not result in hypoglycemia |
